The target of one assay is T1, PPARδ (Homo sapiens, UniProt Q03181).
T1 construct: expressed in transfected cells; host or cells: COS-7
T1 sequence (Q03181 211-439): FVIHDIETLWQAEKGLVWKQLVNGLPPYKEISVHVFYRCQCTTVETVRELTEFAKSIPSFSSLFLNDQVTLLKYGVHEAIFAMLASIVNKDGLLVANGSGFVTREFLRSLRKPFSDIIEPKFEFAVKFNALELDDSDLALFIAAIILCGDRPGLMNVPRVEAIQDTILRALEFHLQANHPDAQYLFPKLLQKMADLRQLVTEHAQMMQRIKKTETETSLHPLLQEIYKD
The experiment in a line: PPAR transactivation assay in COS-7 cells (Gal4-hPPAR-LBD, luciferase). In kind it is cell-based.
Conditions: not given
The method, then:
(§1) COS-7 cells (PPAR) were grown in DMEM high glucose, supplemented with 10% fetal calf serum (FCS), 1% sodium pyruvate (SP) and 1% penicillin/streptomycin (PS) at 37° C. and 5% CO2. Used plasmids for PPAR transactivation assay are shown under supporting informations.
(§2) The day before transfection, COS-7 cells were seeded in 96-well plates with a density of 30,000 cells per well. Transient transfection was carried out using Lipofectamine LTX reagent (Invitrogen, Carlsbad, Calif., USA) according to the manufacturer's protocol with pFR-Luc (Stratagene), pRL-SV40 (Promega) and the Ga14-fusion receptor plasmids (pFA-CMV-hPPAR-LBD) of the respective PPAR subtype. 5 h after transfection, medium was changed to DMEM without phenol red and 10% FCS, supplemented with 1% SP, 1% PS and 1% L-glutamine, now additionally containing 0.1% DMSO and the respective test compound or 0.1% DMSO alone as untreated control. Each concentration was tested in triplicate wells and each experiment was repeated independently at least three times. Following overnight incubation with the test compounds, cells were assayed for luciferase activity using Dual-Glo™ Luciferase Assay System (Promega) according to the manufacturer's protocol. Luminescence was measured with an Infinite m200 luminometer (Tecan Deutschland GmbH). Each concentration of the compounds was tested in triplicate wells. Normalization for transfection efficacy and cell growth was done by division of the firefly luciferase data by renilla luciferase data resulting in relative light units. Activation factors were obtained by dividing by DMSO control. […] All compounds were evaluated by comparison of the achieved maximum effect to that of the reference compound (pioglitazone for PPARγ, GW7647 for PPARa, and L165041 for PPARS each with 1 μM). Data are expressed as mean±SE; n≥3.
(§3) The Gal4-fusion receptor plasmids pFA-CMV-PPARa-LBD, pFA-CMV-PPARS-LBD and pFA-CMV-PPARγ-LBD containing the hinge region and ligand binding domain (LBD) for each of the PPAR subtypes, respectively, were constructed by integrating cDNA fragments obtained from PCR amplification of human monocytes into the SmaI/XbaI cleavage site of the pFA-CMV vector (Stratagene, La Jolla, Calif., USA) and have already been published. […] Frame and sequence of the fusion receptors were verified by sequencing. pFR-Luc (Stratagene) was used as reporter plasmid and pRL-SV40 (Promega) for normalization of transfection efficacy and cell growth.
On to `CCOC(=O)C(CC)Cc1ccc(C(=O)NCc2ccccc2)cc1` (stereo not shown) [Compound 2b, Ethyl 2-ethyl 3-[4-(N-benzylbenzamide)]propanoate], for which the “EC50 PPARδ” value is given as “n.t. i.a. i.a. n.t”. As to `CCOC(=O)C(CC)Cc1ccc(C(=O)NCc2ccc(F)cc2)cc1` (stereo not shown) [Compound 7b, Ethyl 2-ethyl 3-[4-(N-((4-fluoro)benzyl)benzamide)]propanoate], the “EC50 PPARδ” value is on record as “n.t. i.a. i.a. n.t”.

The same assay, now with this note: i.a. = inactive.
`CCOC(=O)C(CC)Cc1ccc(C(=O)NCc2ccccc2C)cc1` (stereo not shown) [Compound 3b, Ethyl 2-ethyl 3-[4-(N-((2-methyl)benzyl)benzamide)]propanoate]: the “EC50 PPARδ” value is given as “n.t. i.a. i.a. n.t”. With `CCOC(=O)C(CC)Cc1ccc(C(=O)NCc2ccccc2Cl)cc1` (stereo not shown) [Compound 4b, Ethyl 2-ethyl 3-[4-(N-((2-chloro)benzyl)benzamide)]propanoate], the “EC50 PPARδ” value was “n.t. i.a. i.a. n.t”. With `CCOC(=O)C(CC)Cc1ccc(C(=O)NCc2ccc(C(F)(F)F)cc2)cc1` (stereo not shown) [Compound 8b, Ethyl 2-ethyl 3-[4-(N-((4-trifluoromethyl)benzyl)benzamide)]propanoate], the “EC50 PPARδ” value is given as “n.t. i.a. i.a. n.t”. Turning to `CCC(Cc1ccc(C(=O)NCc2ccc(C(F)(F)F)cc2)cc1)C(=O)O` (stereo not shown) [Compound 8c, 2-Ethyl 3-[4-(N-((4-trifluoromethyl)benzyl)benzamide)]propionic acid], the “EC50 PPARδ” value is recorded as “n.t. i.a. i.a. n.t”. For `CCOC(=O)C(CC)Cc1ccc(C(=O)NCc2ccc(OC(F)(F)F)cc2)cc1` (stereo not shown) [Compound 9b, Ethyl 2-ethyl 3-[4-(N-((4-trifluoromethoxy)benzyl)benzamide)]propanoate], the “EC50 PPARδ” value is on record as “n.t. i.a. i.a. n.t”. Take `CCC(Cc1ccc(C(=O)NCc2ccc(OC(F)(F)F)cc2)cc1)C(=O)O` (stereo not shown) [Compound 9c, 2-Ethyl 3-[4-(N-((4-trifluoromethoxy)benzyl)benzamide)]propionic acid]: the “EC50 PPARδ” value is on record as “n.t. i.a. i.a. n.t”. For `CCOC(=O)C(CC)Cc1ccc(C(=O)NCc2ccc(Oc3ccccc3)cc2)cc1` (stereo not shown) [Compound 12b, Ethyl 2-ethyl 3-[4-(N-((4-phenoxy)benzyl)benzamide)]propanoate], the “EC50 PPARδ” value is given as “i.a”.

The target in a further assay is T2, PPARα (Homo sapiens, UniProt Q07869).
T2 construct: expressed in transfected cells; host or cells: COS-7
T2 sequence (Q07869 239-466): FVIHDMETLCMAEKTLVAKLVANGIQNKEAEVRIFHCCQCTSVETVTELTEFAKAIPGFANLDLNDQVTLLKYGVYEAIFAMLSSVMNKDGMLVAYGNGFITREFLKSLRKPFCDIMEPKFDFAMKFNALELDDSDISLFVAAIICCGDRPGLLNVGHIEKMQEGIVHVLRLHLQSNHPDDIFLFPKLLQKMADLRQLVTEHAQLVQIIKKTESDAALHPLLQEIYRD
Experiment: not given
It is filed as cell-based.
Conditions: not given
The method, then: as §1, §2, §3
In the case of `CCOC(=O)C(CC)Cc1ccc(C(=O)NCc2ccccc2)cc1` (stereo not shown) [Compound 2b, Ethyl 2-ethyl 3-[4-(N-benzylbenzamide)]propanoate], the “EC50 PPARα” value is reported as “n.t. i.a. i.a. n.t”.

In the case of `CCOC(=O)C(CC)Cc1ccc(C(=O)NCc2ccc(F)cc2)cc1` (stereo not shown) [Compound 7b, Ethyl 2-ethyl 3-[4-(N-((4-fluoro)benzyl)benzamide)]propanoate], the “EC50 PPARα” value is reported as “n.t. i.a. i.a. n.t”.

The assay is the same for the next values; noted with them: at 10 μM; compared to GW7647 1 μM.
With `CCOC(=O)C(CC)Cc1ccc(C(=O)NCc2ccccc2C)cc1` (stereo not shown) [Compound 3b, Ethyl 2-ethyl 3-[4-(N-((2-methyl)benzyl)benzamide)]propanoate], the “PPARα activation @10 μM” value came out at 15%. `CCOC(=O)C(CC)Cc1ccc(C(=O)NCc2ccc(C(F)(F)F)cc2)cc1` (stereo not shown) [Compound 8b, Ethyl 2-ethyl 3-[4-(N-((4-trifluoromethyl)benzyl)benzamide)]propanoate]: the “PPARα activation @10 μM” value is 22%.

Still in this assay, the particulars now being: compared to GW7647 1 μM.
As for `CCOC(=O)C(CC)Cc1ccc(C(=O)NCc2ccc(Oc3ccccc3)cc2)cc1` (stereo not shown) [Compound 12b, Ethyl 2-ethyl 3-[4-(N-((4-phenoxy)benzyl)benzamide)]propanoate], the “Emax-% PPARα (maximum activation in percent)” value came to 110%.

Staying with this assay, now noted: i.a. = inactive.
In the case of `CCOC(=O)C(CC)Cc1ccc(C(=O)NCc2ccccc2Cl)cc1` (stereo not shown) [Compound 4b, Ethyl 2-ethyl 3-[4-(N-((2-chloro)benzyl)benzamide)]propanoate], the “EC50 PPARα” value was “n.t. i.a. i.a. n.t”.

The target in the next assay is T3, recombinant human sEH (Homo sapiens, UniProt P34913).
T3 sequence (P34913 1-555): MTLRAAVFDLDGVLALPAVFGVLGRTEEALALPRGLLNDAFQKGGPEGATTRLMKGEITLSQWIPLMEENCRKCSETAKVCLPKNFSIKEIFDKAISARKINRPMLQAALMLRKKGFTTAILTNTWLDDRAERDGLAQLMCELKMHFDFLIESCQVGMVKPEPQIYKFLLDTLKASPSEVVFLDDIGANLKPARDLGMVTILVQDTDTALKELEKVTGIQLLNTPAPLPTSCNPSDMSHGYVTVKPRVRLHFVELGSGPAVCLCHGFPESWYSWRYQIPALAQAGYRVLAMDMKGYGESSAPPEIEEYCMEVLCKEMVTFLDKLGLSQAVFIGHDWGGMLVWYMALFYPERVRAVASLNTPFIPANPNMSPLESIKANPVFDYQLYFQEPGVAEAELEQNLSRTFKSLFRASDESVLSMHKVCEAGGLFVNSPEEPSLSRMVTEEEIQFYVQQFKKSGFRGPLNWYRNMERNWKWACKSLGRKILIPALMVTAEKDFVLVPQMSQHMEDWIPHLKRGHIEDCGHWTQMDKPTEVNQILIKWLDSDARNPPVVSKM
Briefly: biochemical. The settings on record: read-out: IC50 sEH (converted).
For `CC/C(=C\c1ccc(C(=O)NCc2ccccc2)cc1)C(=O)O` [Compound 2d, (E)-4-[N-Benzylbenzamide]-alpha-ethylcinnamic acid], the IC50 is 9300 nM. With `CCOC(=O)/C(=C/c1ccc(C(=O)NCc2ccccc2C)cc1)CC` [Compound 3a, Ethyl (E)-4-[N-((2-methyl)benzyl)benzamide]-alpha-ethylcinnamate], the IC50 was 760 ± 50 nM. With `CC/C(=C\c1ccc(C(=O)NCc2ccccc2C)cc1)C(=O)O` [Compound 3d, (E)-4-[N-((2-Methyl)benzyl)benzamide]-alpha-ethylcinnamic acid], the IC50 was 10000 nM. `CCOC(=O)/C(=C/c1ccc(C(=O)NCc2ccccc2Cl)cc1)CC` [Compound 4a, Ethyl (E)-4-[N-((2-chloro)benzyl)benzamide]-alpha-ethylcinnamate]: the IC50 is 410 ± 140 nM. On to `CC/C(=C\c1ccc(C(=O)NCc2ccccc2Cl)cc1)C(=O)O` [Compound 4d, (E)-4-[N-((2-Chloro)benzyl)benzamide]-alpha-ethylcinnamic acid], for which the IC50 is 2800 nM. Consider `CCOC(=O)/C(=C/c1ccc(C(=O)NCc2ccccc2Br)cc1)CC` [Compound 5a, Ethyl (E)-4-[N-((2-bromo)benzyl)benzamide]-alpha-ethylcinnamate], for which the IC50 is 300 ± 80 nM. As to `CC/C(=C\c1ccc(C(=O)NCc2ccccc2Br)cc1)C(=O)O` [Compound 5d, (E)-4-[N-((2-Bromo)benzyl)benzamide]-alpha-ethylcinnamic acid], the IC50 was 2400 nM.

`CC/C(=C\c1ccc(C(=O)NCc2ccccc2OC(F)(F)F)cc1)C(=O)O` [Compound 6d, (E)-4-[N-((2-Trifluoromethoxy)benzyl)benzamide]-alpha-ethylcinnamic acid]: the IC50 was 900 nM. Same read-out and setting: then `CCOC(=O)/C(=C/c1ccc(C(=O)NCc2ccc(F)cc2)cc1)CC` [Compound 7a, Ethyl (E)-4-[N-((4-fluoro)benzyl)benzamide]-alpha-ethylcinnamate], with 62 ± 3 nM; and `CC/C(=C\c1ccc(C(=O)NCc2ccc(F)cc2)cc1)C(=O)O` [Compound 7d, (E)-4-[N-((4-Fluoro)benzyl)benzamide]-alpha-ethylcinnamic acid], with 6700 nM. As to `CCOC(=O)/C(=C/c1ccc(C(=O)NCc2ccc(C(F)(F)F)cc2)cc1)CC` [Compound 8a, Ethyl (E)-4-[N-((4-trifluoromethyl)benzyl)benzamide]-alpha-ethylcinnamate], the IC50 is 550 ± 60 nM. The same measure, in the same setting: then `CCOC(=O)/C(=C/c1ccc(C(=O)NCc2ccc(OC(F)(F)F)cc2)cc1)CC` [Compound 9a, Ethyl (E)-4-[N-((4-trifluoromethoxy)benzyl)benzamide]-alpha-ethylcinnamate], with 880 ± 100 nM; and `CC/C(=C\c1ccc(C(=O)NCc2ccc(OC(F)(F)F)cc2)cc1)C(=O)O` [Compound 9d, (E)-4-[N-((4-Trifluoromethoxy)benzyl)benzamide]-alpha-ethylcinnamic acid], with 1600 nM.

In the case of `CC/C(=C\c1ccc(C(=O)NCc2ccc(OC)cc2)cc1)C(=O)O` [Compound 10d, (E)-4-[N-((4-Methoxy)benzyl)benzamide]-alpha-ethylcinnamic acid], the IC50 is 13000 nM. With `CCOC(=O)/C(=C/c1ccc(C(=O)NCc2ccc(Oc3ccccc3)cc2)cc1)CC` [Compound 12a, Ethyl (E)-4-[N-((4-phenoxy)benzyl)benzamide]-alpha-ethylcinnamate], the IC50 is 1400 ± 60 nM. Turning to `CC/C(=C\c1ccc(C(=O)NCc2ccc(Oc3ccccc3)cc2)cc1)C(=O)O` [Compound 12d, (E)-4-[N-((4-Phenoxy)benzyl)benzamide]-alpha-ethylcinnamic acid], the IC50 is 800 nM.

For `CCOC(=O)/C(=C/c1ccc(C(=O)NCc2ccc(F)cc2C(F)(F)F)cc1)CC` [Compound 13a], the IC50 was 100 ± 10 nM. As to `CC/C(=C\c1ccc(C(=O)NCc2ccc(F)cc2C(F)(F)F)cc1)C(=O)O` [Compound 13d, (E)-4-[N-((4-Fluoro(2-trifluoromethyl))benzyl)benzamide]-alpha-ethylcinnamic acid], the IC50 is 1200 nM. Take `CCOC(=O)/C(=C/c1ccc(C(=O)NCc2ccc(OC)cc2C(F)(F)F)cc1)CC` [Compound 14a]: the IC50 is 50 ± 9 nM. For the compound `CC/C(=C\c1ccc(C(=O)NCc2ccc(OC)cc2C(F)(F)F)cc1)C(=O)O` [Compound 14d], the IC50 was 400 nM.

With `CCOC(=O)/C(=C/c1cccc(C(=O)NCc2ccccc2C(F)(F)F)c1)CC` [Compound 15a, Ethyl (E)-3-[N-((2-trifluoromethyl)benzyl)benzamide]-alpha-ethylcinnamate], the IC50 was 40 ± 6 nM.

For `CC/C(=C\c1cccc(C(=O)NCc2ccccc2C(F)(F)F)c1)C(=O)O` [Compound 15d, (E)-3-[N-((2-Trifluoromethyl)benzyl)benzamide]-alpha-ethylcinnamic acid], the IC50 is 400 ± 100 nM.

(Values after patent US11447445B2, “Diabetes and metabolic syndrome treatment with a novel dual modulator of soluble epoxide hydrolase and peroxisome proliferator-activated receptors” (priority 2015, dated 2022).)
